The source of these data is patent US20260001910A1, “PEPTIDES AND USES THEREOF” (PreveCeutical Medical Inc., priority 2021, published 2026).

On data set [1], the source says: The MTT (3-[4.5-dimethylthiazol-2-yl]-2,5=diphenyl tetrazolium bromide) assay is based on a process undertaken by living cells, involving the conversion of MTT into formazan crystals. This assay is used routinely to measure the in vitro cytotoxic effects of drugs on cell lines or primary patient cells (Van Meerloo et al., 2011).
The glioblastoma multiforme (GBM) cell lines used were U87 and U251 cells and patient derived cells grown as oncospheres (081024 cells). Human adherent GBM cell lines U87 and U251 were cultured in RPMI medium (Life Technologies Melbourne Australia) supplemented with 5% v/v FBS, 100 U/mL penicillin and 100 μg/mL streptomycin. 081024 cells were cultured in NeuroCult™ NS-A Proliferation medium with 0.2% (v/v) hepain, 20 ng/mL EGF and 10 ng/ml FGF.
8×10^3 U87 and 7×10^3 U251 cells per well were seeded in 96 well plates in 200 μL serum-containing RPMI medium and incubated at 37° C. with 5% CO2 for 24 hours. After one wash with serum-free medium, 100 μL serum-free medium with different concentration of peptide SEQ ID NO:1 was added to each well. After 48 hours incubation, 10 μL of 0.5 mg/mL MTT was added and incubated for 2 hours at 37° C. Formazan crystals were dissolved by 200 μL/well dimethyl sulfoxide (DMSO) and shaking for 15 minutes. The UV absorbance was read with an iMark™ microplate absorbance reader at 595 nm (Bio-Rad Laboratories). Background absorbance was subtracted and results expressed as the % viability of control (untreated cells).

For a further data set, the system named is uPA. Put plainly: Casein-plasminogen zymography of conditioned media (uPA production). It counts as cell-based, human. The note with it: for uPA production: conditioned medium, compared to no-peptide control. The text has this:
To assess whether the peptide SEQ ID NO. 1 impacted MMP-2, MMP-9 and uPA production Zymography was used.
Zymography is a technique for studying hydrolytic enzymes on the basis of substrate degradation (Vandooren, J. et al. 2013). The in-gel zymography hydrolytic enzymes are separated by their molecular weights and detected by their ability to degrade a substrate. To detect the activity of MMP-2 and MMP-9 in various cell lines, conditioned media were collected in 3 independent experiments and analysed by gelatin zymography to quantify the level of gelatin digestion, which reflects MMP-2 and MMP-9 activity and production. Cascin-Plasminogen zymography was conducted to determine the activity level of uPA in the conditioned medium from various cell lines. Active uPA converts plasminogen into plasmin which then digests casein, thus clear bands where digestion of casein have occurred indirectly represent uPA activity.
The effect of the peptides on matrix protease production was tested using in-gel zymography. If the substrate included in the gel is gelatin, the enzymes detected are gelatinases: MMP-2 and MMP-9 (the latter is often of low abundance). If the gel contains casein and plasminogen, the enzymes tested are urokinase plasminogen activators (uPA); uPA is a therapeutic target in GBM.
An equal amount of protein from each sample was mixed with 5 μL of Laemmli buffer (0.01% Bromophenol Blue (W/V), 5% SDS (W/V), 22% glycerol (V/V), 14% 0.5 M Tris pH 6.8 (V/V)) and loaded onto a 10% polyacrylamide gel co-polymerized with 1 mg/ml of gelatin, and electrophoresed at 120V for 2 hours on ice. The gel was incubated in […] solution (Triton X-100 2.5% (V/V), 1 M Tris pH 7.5 5% (V/V), 0.5 M CaCl2) 1% (W/V) at room temperature overnight on an orbital shaker. The gel was incubated in a second solution for 3 hours at 37° C. The gel was then stained with Coomassie blue solution (Coomassie blue 0.25%, methanol 45%, acetic acid 10%) and destained in methanol 25% (V/V), acetic acid 10% (V/V) destaining solution until clear bands against the dark background appeared around 72 kDa and 95 kDa, representing MMP-2 and MMP-9 activity, respectively. Clear bands around 50 kDa appeared against the dark background representing uPA activity. The gels were scanned, and uPA, MMP-2 and MMP-9 were quantified by densitometry using NIH Image J software.
SEQ ID NO. 1 was compared to a control containing no peptide to evaluate whether the peptide can reduce the production of matrix proteinases. A reduction in the production of matrix proteinases may be anticipated to result in comparatively less degradation of the extra-cellular matrix and so this could be one pathway by which the invasion potential could be reduced.

As for `CC(C)C[C@@H](NC(=O)[C@@H](Cc1ccccc1)NC(=O)CNC(=O)CNC(=O)[C@H](N)Cc1ccc(O)cc1)C(=O)N[C@H](CCCNC(=N)N)C(=O)N[C@H](CCCNC(=N)N)C(N)=O` [SEQ ID NO. 1, tyr-Gly-Gly-phe-leu-arg-arg-NH2], the viability (as a rule, a read-out of living cells in per cent, often relative to untreated cells) at 5 µM in data set [1] stood at 100%. Further, the viability at 50 µM in data set [1] worked out at 101%. Moreover, the viability at 100 µM in data set [1] is 94.4%. In addition, the uPA production was found to be 97.57 ± 13.7 in the data set on uPA (081024 cells), 109.1 ± 12.41 with uPA (U87 cells) and 95.22 ± 12.83 in the data set on uPA (U251 cells). For the same compound, the “effect on production of uPA (in words)” value in the data set on uPA (overall, versus no-peptide control) is on record as “did not decrease the production”.
